Here are results for 15 molecules from BindingDB's records for patent WO2025049746 (Eikon Therapeutics, 2025).

For assay [1], the target named is T1, Bifunctional 3'-5' exonuclease/ATP-dependent helicase WRN [480-1251] (UniProt Q14191).
T1 construct: 480-1251
Nature of the assay: Biochemical Activity Assays.

For assay [2], the target named is Bifunctional 3'-5' exonuclease/ATP-dependent helicase WRN (Homo sapiens, UniProt Q14191). Nature of the assay: ADP-Glo Kinase Assay. The method, then: ATPase activity was measured using the ADP-Glo Kinase Assay following the manufacturers recommended protocol.
Bifunctional 3'-5' exonuclease/ATP-dependent helicase WRN, sequence (Q14191 whole entry): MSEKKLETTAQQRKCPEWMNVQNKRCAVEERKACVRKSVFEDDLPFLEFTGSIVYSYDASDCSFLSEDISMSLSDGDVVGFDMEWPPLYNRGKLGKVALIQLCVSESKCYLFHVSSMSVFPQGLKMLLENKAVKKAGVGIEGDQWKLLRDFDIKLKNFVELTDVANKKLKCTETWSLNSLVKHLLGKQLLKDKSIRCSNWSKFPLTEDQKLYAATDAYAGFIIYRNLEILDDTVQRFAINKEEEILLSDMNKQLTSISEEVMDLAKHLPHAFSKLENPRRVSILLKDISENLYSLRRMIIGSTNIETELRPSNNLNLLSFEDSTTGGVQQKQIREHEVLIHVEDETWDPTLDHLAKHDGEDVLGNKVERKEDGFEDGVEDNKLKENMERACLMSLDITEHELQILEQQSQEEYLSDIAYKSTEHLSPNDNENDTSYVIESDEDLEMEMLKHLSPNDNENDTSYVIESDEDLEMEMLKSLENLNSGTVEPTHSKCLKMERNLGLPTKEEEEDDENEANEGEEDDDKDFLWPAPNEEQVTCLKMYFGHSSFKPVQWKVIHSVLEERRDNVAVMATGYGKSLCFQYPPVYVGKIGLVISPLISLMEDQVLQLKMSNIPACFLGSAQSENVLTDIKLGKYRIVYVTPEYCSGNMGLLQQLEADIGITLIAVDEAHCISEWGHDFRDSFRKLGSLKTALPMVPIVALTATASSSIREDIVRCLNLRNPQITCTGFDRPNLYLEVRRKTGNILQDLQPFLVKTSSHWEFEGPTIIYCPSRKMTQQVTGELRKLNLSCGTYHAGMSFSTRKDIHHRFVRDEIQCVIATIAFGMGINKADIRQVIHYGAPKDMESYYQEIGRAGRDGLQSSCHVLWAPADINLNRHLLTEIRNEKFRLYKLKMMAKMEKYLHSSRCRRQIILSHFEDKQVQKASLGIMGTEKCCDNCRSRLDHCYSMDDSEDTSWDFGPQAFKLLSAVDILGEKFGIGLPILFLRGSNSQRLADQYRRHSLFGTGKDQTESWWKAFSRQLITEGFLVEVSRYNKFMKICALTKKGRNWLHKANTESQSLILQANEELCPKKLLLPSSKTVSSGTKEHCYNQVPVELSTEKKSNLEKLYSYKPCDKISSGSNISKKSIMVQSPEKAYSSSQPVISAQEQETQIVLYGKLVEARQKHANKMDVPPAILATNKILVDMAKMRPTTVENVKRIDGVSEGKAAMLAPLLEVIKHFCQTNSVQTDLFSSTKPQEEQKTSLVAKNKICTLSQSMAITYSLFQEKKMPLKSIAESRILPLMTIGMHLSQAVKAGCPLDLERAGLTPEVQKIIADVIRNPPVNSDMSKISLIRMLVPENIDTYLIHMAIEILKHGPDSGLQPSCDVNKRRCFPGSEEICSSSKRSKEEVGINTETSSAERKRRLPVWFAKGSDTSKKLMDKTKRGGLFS
On the technique in general: ADP-Glo turns the ADP formed in a reaction into a luminescent signal.

T1 sequence (Q14191 480-1251): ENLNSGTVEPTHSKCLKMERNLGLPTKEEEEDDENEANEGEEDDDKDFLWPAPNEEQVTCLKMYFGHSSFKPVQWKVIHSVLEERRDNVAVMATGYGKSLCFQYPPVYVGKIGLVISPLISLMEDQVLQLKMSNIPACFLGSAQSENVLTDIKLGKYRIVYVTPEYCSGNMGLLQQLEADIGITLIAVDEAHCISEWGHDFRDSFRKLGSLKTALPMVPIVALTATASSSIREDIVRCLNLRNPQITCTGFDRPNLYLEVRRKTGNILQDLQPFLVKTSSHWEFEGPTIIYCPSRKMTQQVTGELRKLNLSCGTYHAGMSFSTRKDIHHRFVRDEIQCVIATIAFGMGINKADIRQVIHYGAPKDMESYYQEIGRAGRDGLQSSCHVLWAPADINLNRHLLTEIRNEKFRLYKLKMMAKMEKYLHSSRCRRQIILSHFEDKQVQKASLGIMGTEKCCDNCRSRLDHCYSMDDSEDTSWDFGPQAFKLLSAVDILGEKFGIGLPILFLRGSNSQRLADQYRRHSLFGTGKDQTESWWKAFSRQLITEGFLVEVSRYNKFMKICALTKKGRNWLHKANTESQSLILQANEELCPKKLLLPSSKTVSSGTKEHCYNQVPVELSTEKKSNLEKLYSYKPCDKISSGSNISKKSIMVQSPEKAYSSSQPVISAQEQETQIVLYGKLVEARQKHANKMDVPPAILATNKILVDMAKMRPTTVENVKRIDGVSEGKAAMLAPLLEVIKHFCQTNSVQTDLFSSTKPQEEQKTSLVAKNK

Turning to `CCc1c(N2CCN(C(=O)c3ncnc(C)c3O)CC2)c(=O)n2nc(N3CCC(=C(F)F)CC3)nc2n1CC(=O)Nc1ccc(C(F)(F)F)cc1Cl` [WO2025049746, Example 205], the figures for the IC50 in assay [1] and in assay [2] were 27 nM and 36 nM, respectively.
In the case of `CCc1c(N2CCN(C(=O)c3ncnc(C)c3O)CC2)c(=O)n2nc(-c3cc(C)c4c(c3)COC4)nc2n1CC(=O)Nc1ccc(C(F)(F)F)cc1Cl` [WO2025049746, Example 206], the IC50 (as a rule, the point on the concentration scale where inhibition reaches its midpoint) came to 28 nM in assay [1] and 33 nM in assay [2].
`CCc1c(N2CCN(C(=O)c3ncnc(C)c3O)CC2)c(=O)n2nc(-c3ccc4c(c3)CC[C@@H]4OC)nc2n1CC(=O)Nc1ccc(C(F)(F)F)cc1Cl` [WO2025049746, Example 207]: the IC50 in assay [1] came to 33 nM; in assay [2], 39 nM.
For `CCc1c(N2CCN(C(=O)c3ncnc(C)c3O)CC2)c(=O)n2nc(-c3ccc4c(c3)CC[C@H]4OC)nc2n1CC(=O)Nc1ccc(C(F)(F)F)cc1Cl` [WO2025049746, Example 208], the IC50 in assay [1] turned out to be 34 nM; in assay [2], 39 nM.
Turning to `CCc1c(N2CCN(C(=O)c3ncnc(C)c3O)CC2)c(=O)n2nc(-c3ccc4c(c3)COC43CN(C)C3)nc2n1CC(=O)Nc1ccc(C(F)(F)F)cc1Cl` [WO2025049746, Example 209], the IC50 is 45 nM in assay [1] and 56 nM in assay [2].
Regarding `CCc1c(N2CCN(C(=O)c3ncnc(C)c3O)CC2)c(=O)n2nc(-c3nc4c(s3)CCC4)nc2n1CC(=O)Nc1ccc(C(F)(F)F)cc1Cl` [WO2025049746, Example 210], the IC50 in assay [1] worked out at 31 nM; in assay [2], 38 nM.
For the molecule `CCc1c(N2CCN(C(=O)c3ncnc(C)c3O)CC2)c(=O)n2nc(-c3cc4c(cc3F)C(C)(C)OC4)nc2n1CC(=O)Nc1ccc(C(F)(F)F)cc1Cl` [WO2025049746, Example 211], the IC50 turned out to be 32 nM in assay [1] and 36 nM in assay [2].
For the molecule `CCc1c(N2CCN(C(=O)c3ncnc(C)c3O)CC2)c(=O)n2nc(-c3cc(F)c4c(c3)COC4(C)C)nc2n1CC(=O)Nc1ccc(C(F)(F)F)cc1Cl` [WO2025049746, Example 212], the half-inhibitory concentration (IC50) in assay [1] is 73 nM; in assay [2], 86 nM.
With `CCc1c(N2CCN(C(=O)c3ncnc(C)c3O)CC2)c(=O)n2nc(-c3cc4c(cc3C)C(C)(C)OC4)nc2n1CC(=O)Nc1ccc(C(F)(F)F)cc1Cl` [WO2025049746, Example 213], the figures for the IC50 in assay [1] and in assay [2] were 58 nM and 85 nM, respectively.
The matching figures for `CCc1c(N2CCN(C(=O)c3ncnc(C)c3O)CC2)c(=O)n2nc(-c3ccc4c(c3C)COC4(C)C)nc2n1CC(=O)Nc1ccc(C(F)(F)F)cc1Cl` [WO2025049746, Example 214]: 38 nM and 45 nM.
Regarding `CCc1c(N2CCN(C(=O)c3ncnc(C)c3O)CC2)c(=O)n2nc(-c3ccc4c(c3)COC43CCC3)nc2n1CC(=O)Nc1ccc(C(F)(F)F)cc1Cl` [WO2025049746, Example 215], the results for the IC50 in assay [1] and in assay [2] were 46 nM and 48 nM, respectively.
`CCc1c(N2CCN(C(=O)c3ncnc(C)c3O)CC2)c(=O)n2nc(-c3ccc4c(c3F)COC4(C)C)nc2n1CC(=O)Nc1ccc(C(F)(F)F)cc1Cl` [WO2025049746, Example 216]: the IC50 in assay [1] and in assay [2] was 37 nM each time.
For the molecule `CCc1c(N2CCN(C(=O)c3ncnc(C)c3O)CC2)c(=O)n2nc(-c3ccc4c(c3F)CCOC4)nc2n1CC(=O)Nc1ccc(C(F)(F)F)cc1Cl` [WO2025049746, Example 217], the figures for the IC50 in assay [1] and in assay [2] were 32 nM and 31 nM, respectively.
`CCc1c(N2CCN(C(=O)c3ncnc(C)c3O)CC2)c(=O)n2nc(-c3ccn4c(C)ncc4c3)nc2n1CC(=O)Nc1ccc(C(F)(F)F)cc1Cl` [WO2025049746, Example 218]: the IC50 in assay [1] is 34 nM; in assay [2], 44 nM.
In the same order, the values of `CCc1c(N2CCN(C(=O)c3ncnc(C)c3O)CC2)c(=O)n2nc(-c3ccn4cncc4c3)nc2n1CC(=O)Nc1ccc(C(F)(F)F)cc1Cl` [WO2025049746, Example 219] are 19 nM and 19 nM.
